pIC50: −log10 of the molar value. Read-outs that look alike come from different tables or passages of the source.
Tests used:
[1] = biological target: T1, 5-lipoxygenase (Cavia porcellus, UniProt A0A286X958); test: 5-Lipoxygenase (5-LO) Assay: 5-HETE formation in supernatant of guinea pig PMNL sonicate; assay type: biochemical
T1 construct: 0.2 ml of the supernatant obtained from the PMNL sonicate; endogenous in cells; host or cells: casein-elicited guinea pig peritoneal polymorphonuclear leukocytes (PMNL), sonicate, 30,000 x g supernatant
T1 sequence (A0A286X958 1-674): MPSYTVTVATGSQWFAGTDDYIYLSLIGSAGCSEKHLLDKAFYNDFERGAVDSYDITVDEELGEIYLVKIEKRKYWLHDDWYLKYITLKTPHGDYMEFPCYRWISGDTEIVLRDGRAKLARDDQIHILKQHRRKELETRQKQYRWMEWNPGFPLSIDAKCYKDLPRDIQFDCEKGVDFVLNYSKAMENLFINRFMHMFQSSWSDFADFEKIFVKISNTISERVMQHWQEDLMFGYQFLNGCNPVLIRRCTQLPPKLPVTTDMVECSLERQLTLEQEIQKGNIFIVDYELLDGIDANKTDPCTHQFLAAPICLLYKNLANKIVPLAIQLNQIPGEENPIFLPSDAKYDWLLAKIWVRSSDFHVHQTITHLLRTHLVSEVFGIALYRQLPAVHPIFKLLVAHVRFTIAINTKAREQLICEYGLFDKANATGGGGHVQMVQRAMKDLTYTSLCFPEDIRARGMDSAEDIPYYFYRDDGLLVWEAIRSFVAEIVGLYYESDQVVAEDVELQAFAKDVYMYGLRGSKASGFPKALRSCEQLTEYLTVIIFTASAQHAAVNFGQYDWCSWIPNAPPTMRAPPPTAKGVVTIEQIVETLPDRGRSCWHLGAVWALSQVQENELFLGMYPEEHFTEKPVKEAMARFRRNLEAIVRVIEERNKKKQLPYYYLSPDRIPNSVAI
Procedure: Ten milliliters of a 2% casein solution is injected intraperitoneally to guinea pigs weighing 250-300 gm. After 16-18 hours, the guinea pigs are killed by suffocation in a carbon dioxide chamber. The peritoneal cavity is infused with 70 ml of saline and 40-50 ml of the fluid is recovered from the cavity. After centrifugation, cell pellets are washed twice in Hank's balanced salt solution (HBSS) without calcium ion.
The cells are then suspended in 5 ml of sodium phosphate buffer, pH 7.1 containing 1 mM, ethylene diamine tetraacetic acid (EDTA), and 0.1% gelatin. About 20-30×10^7 cells are obtained from one guinea pig.
The PMNL suspension is disrupted by five 1/2-second pulse sonication at the setting of 3 in a Branson Sonifier, Model 350, equipped with a microtip. The sonicates are combined and centrifuged at 30,000 ×g for 10 minutes. The supernatant is kept frozen at -70° C. until use.
Enzyme activity is determined by assaying for 5-hydroxy-6,8,11,14-eicosatetraenoic acid (5-HETE) formation by first incubating 0.2 ml of the supernatant obtained from the PMNL sonicate with the test compound, 1 mM CaCl2, 2 mM ATP, and 1 mM GSH for 5 minutes at 37° C. The mixture is treated with […] ^14 C-arachidonic acid and incubated at 37° C. an additional 10 minutes. The enzyme reaction is then stopped by the addition of 10 μl of 1M citric acid and 10 μl of an alcohol solution containing 20 mg/ml each of indomethacin and butylated hydroxyanisole (BHA). The reaction mixture is spotted (50 μl) on a silica gel plate (Baker TLC plate S1250-PA-19C) and subjected to TLC in a solvent system of ethyl acetate/2,2,4-trimethylpentane/glacialacetic acid/H2 O (90:50:20:100).
The radioactivity of the arachidonic acid and its metabolites (5-HETE and LTB4) is visualized from a developed x-ray film which had been exposed to the TLC plate 1-2 days. The amount of 5-HETE formed is quantitated by scraping the silica gel area corresponding to the spot on the x-ray film, and the radioactivity determined in a Isocap/300 liquid scintillation counter (Searle Analytic, Inc.).
The percent inhibition of the formation of 5-HETE is determined for each concentration of compound tested as compared to a control experiment wherein no test compound is added. The concentration and percent values are plotted on semi log paper and the concentration in which formation of 5-HETE is inhibited by 50% (IC50) is determined by interpolation.

[2] = system: polymorphonuclear leukocytes (PMNs); test: H-PMN Assay: LTB4 content of supernatant of A23187-stimulated human PMNs by radioimmunoassay; assay type: cell-based; details: Leukocyte
Procedure: Sodium citrated venous blood is drawn from normal human subjects. After centrifugation at 300 ×g for 15 minutes, the platelet-rich layer of plasma is discarded and an equal volume of Hanks' balanced salt solution (HBSS) is added to the enriched cell fraction. This platelet-depleted cell suspension is then layered on an equal volume of Ficoll-Paque. After centrifugation for 40 minutes at 300 ×g, the bottom layer containing erythrocytes and polymorphonuclear leukocytes (PMNs) is diluted with two volumes of a 0.2% methocel solution. The erythrocytes are sedimented upon standing for 15 minutes, and the supernatant containing the PMNs is aspirated and centrifuged at 300 ×g, for 5 minutes. The cell pellet is then exposed to 0.2% NaCl for 30 seconds to lyse any remaining erythrocytes, and the ionic strength of the suspension is readjusted to 0.9% with NaCl. The PMNs are recovered by centrifugation at 300 ×g for 5 minutes and are suspended in HBSS to a concentration of 2 ×10^6 cells/ml.
The test compounds are dissolved in and diluted with dimethylsulfoxide (DMSO) which also contains 2×10^-6 M of the calcium ionophore, A23187. To 1 ml of the PMN suspension, 10 μl of the DMSO solution is added, and the mixture is incubated at 37° C. for 10 minutes. The PMNs are rapidly pelleted in a microcentrifuge, and the supernatant is kept at -20° C. for future determination of LTB4 content via the radioimmunoassay.

[3] = Table II, guinea pig PMNL sonicate supernatant, 14C-arachidonic acid, 37° C., read-out: 5-LO (concentration in which formation of 5-HETE is inhibited by 50%, IC50)
[4] = 10 min, Table II, human PMNs, calcium ionophore A23187, 37° C. for 10 minutes, LTB4 by radioimmunoassay
[5] = second table (Table III), known hydroxamic acid derivatives as comparison, read-out: 5-Lo (IC50)
[6] = Homo sapiens, second table (Table III), known hydroxamic acid derivatives as comparison

SMILES | pIC50 [1, 3] | pIC50 [2, 4] | pIC50 [1, 5] | pIC50 [2, 6]
CSc1ccc(CCCc2ccccc2)cc1C=CC(=O)N(C)O [Example 27, 2-(methylthio)-5-(3-phenylpropyl)-N-hydroxy-N-methylcinnamamide] | 7.59 | 7.74 |  | 
CCCCCCCCSc1ccccc1C=CC(=O)N(C)O [Example 38, 2-n-octylthio-N-hydroxy-N-methylcinnamamide] | 7.55 | 7.96 |  | 
CN(O)C(=O)C=Cc1ccccc1CCCc1ccccc1 [Example 43, 2-(3-phenylpropyl)-N-hydroxy-N-methylcinnamamide] | 7.22 | 7.92 |  | 
CCCCCCc1ccc(SC)c(C=CC(=O)N(C)O)c1 [Example 45, 2-methylthio-5-n-hexyl-N-hydroxy-N-methylcinnamamide] | 7.24 | 7.70 |  | 
COc1ccccc1C=CC(=O)N(C)O [reference compound] |  |  | 5.92 | 6.84
CN(O)C(=O)C=Cc1ccccc1OCc1ccccc1 [reference compound] |  |  | 7.27 | 7.38
CCCCOc1ccccc1C=CC(=O)N(C)O [reference compound] |  |  | 7.39 | 7.28

Results, then the molecule that gave them:

pIC50 [1, 3] | pIC50 [2, 4] | pIC50 [1, 5] | pIC50 [2, 6] | SMILES
6.41 | 7.00 |  |  | CSc1ccccc1C=CC(=O)N(C)O [Example 23, 2-methylthio-N-hydroxy-N-methyl-cinnamamide]
7.03 | 7.24 |  |  | CCCCSc1ccc(CCCc2ccccc2)cc1C=CC(=O)N(C)O [Example 29, 2-n-butylthio-5-(3-phenylpropyl)-N-hydroxy-N-methylcinnamamide]
7.23 | 7.34 |  |  | CCc1ccc(CCCc2ccccc2)cc1C=CC(=O)N(C)O [Example 30, 2-ethyl-5-(3-phenylpropyl)-N-hydroxy-N-methylcinnamamide]
7.48 | 8.15 |  |  | CN(O)C(=O)C=Cc1ccccc1SCc1ccccc1 [Example 31, 2-benzylthio-N-hydroxy-N-methylcinnamamide]
7.33 | 7.66 |  |  | CCCCSc1ccccc1C=CC(=O)N(C)O [Example 33, 2-(n-butylthio)-N-hydroxy-N-methylcinnamamide]
8.05 | 7.80 |  |  | CN(O)C(=O)C=Cc1ccccc1SCCCc1ccccc1 [Example 35, 2-[1-(3-phenylpropyl)thio]-N-hydroxy-N-methylcinnamamide]
7.28 | 7.55 |  |  | CN(O)C(=O)C=Cc1ccccc1Cc1ccccc1 [Example 37, 2-benzyl-N-hydroxy-N-methylcinnamamide]
7.28 | 7.77 |  |  | CC(C)CSc1ccccc1C=CC(=O)N(C)O [Example 40, 2-[1-(2-methylpropyl)thio]-N-hydroxy-N-methylcinnamamide]
7.51 | 7.77 |  |  | CN(O)C(=O)C=Cc1ccccc1SCCCCCC(F)(F)F [Example 44, 2-[1-(5-trifluoromethylpentyl)thio]-N-hydroxy-N-methylcinnamamide]
 |  | 6.75 | 6.36 | CCCCSc1ccc(CCCc2ccccc2)cc1C(=O)N(C)O [reference compound]

Source: patent publication US5028629A, “5-Lipoxygenase inhibitors” (Eli Lilly and Company, priority 1990, dated 1991)
